Experimental data published in patent US8999956B2, “N-[(het)arylalkyl)] pyrazole(thio)carboxamides and their heterosubstituted analogues” (Bayer Intellectual Property GmbH, priority 2010, dated 2015).

What was measured:
[1] = tested on: aflatoxines produced by Aspergillus parasiticus; assay: microbe, parasite or virus in culture; format: cell-based
[2] = tested on: Aspergillus parasiticus; assay: microbe, parasite or virus in culture; format: cell-based
[3] = log P by HPLC on reversed-phase column (EEC Directive 79/831 Annex V.A8); format: physicochemical
Protocol: In table 1, the log P values were determined in accordance with EEC Directive 79/831 Annex V.A8 by HPLC (High Performance Liquid Chromatography) on a reversed-phase column (C18), using the method described below: Temperature: 40° C.; […]

[4] = tested on: Puccinia triticina; assay: In vivo preventive test on Puccinia triticina (wheat); conditions: for pest or weed control at 500 ppm: Puccinia triticina, 192 h, read-out: Efficacy
[5] = tested on: Pyrenophora teres; assay: In vivo preventive test on Pyrenophora teres (barley); conditions: 500 ppm of active ingredient, evaluated 7-9 days after inoculation
Summary of the method: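 Compound formulated in N,N-dimethylformamide with alkylaryl polyglycol ether emulsifier and diluted in water, then sprayed on young barley plants at the stated application rate. Plants inoculated one day later with aqueous Pyrenophora teres spore suspension, testing preventive protection.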

[6] = tested on: Alternaria solani; assay: In vivo preventive test on Alternaria solani (tomato); conditions: 500 ppm of active ingredient, evaluated 7 days after inoculation
Summary of the method: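 Young tomato plants sprayed preventively with compound in DMF/alkylarylpolyglycolether emulsion diluted in water to the stated rate. Inoculation with aqueous Alternaria solani spore suspension one day after treatment.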

[7] = tested on: Sphaerotheca fuliginea; assay: In vivo preventive test on Sphaerotheca fuliginea (cucumber); conditions: 500 ppm of active ingredient, evaluated 7 days after inoculation
Protocol: Solvent: 49 parts by weight of N,N-dimethylformamide Emulsifier: 1 part by weight of Alkylarylpolyglycolether To produce a suitable preparation of active compound, 1 part by weight of active compound is mixed with the stated amounts of solvent and emulsifier, and the concentrate is diluted with water to the desired concentration. To test for preventive activity, young plants are sprayed with the preparation of active compound at the stated rate of application. One day after this treatment, the plants are inoculated with an aqueous spore suspension of Sphaerotheca fuliginea. Then the plants are placed in a greenhouse at approximately 23° C. and a relative atmospheric humidity of approximately 70%.

[8] = tested on: Leptosphaeria nodorum; assay: In vivo preventive test on Leptosphaeria nodorum (wheat); conditions: 500 ppm of active ingredient, evaluated 7-9 days after inoculation
Protocol: Solvent: 49 parts by weight of N,N-dimethylacetamide Emulsifier: 1 part by weight of alkylaryl polyglycol ether To produce a suitable preparation of active compound, 1 part by weight of active compound is mixed with the stated amounts of solvent and emulsifier, and the concentrate is diluted with water to the desired concentration. To test for preventive activity, young plants are sprayed with a preparation of active compound at the stated rate of application. One day after this treatment, the plants are inoculated with an aqueous spore suspension of Leptosphaeria nodorum.

[9] = Table K, 500 ppm of active ingredient, evaluated 8 days after inoculation
[10] = 500 ppm of active ingredient, evaluated 8 days after inoculation

Row | Compound | % Inhibition of Aflatoxin at 50 μM [1] | % Inhibition of fungal growth at 50 μM [2] | logP [3] | Efficacy [4, 9] | Efficacy [5] | Efficacy [6] | Efficacy [7] | Efficacy [8] | Efficacy ([8]; listed as example E-12 disclosed in patent application WO-2008/101976) | Efficacy [4, 10] | Efficacy ([4]; Table K6, dose 500 ppm, comparison with des-fluoro analogues) | Efficacy ([4]; 500 ppm of active ingredient, evaluated 8 days after inoculation, listed as example E-13 disclosed in patent application WO-2008/101976) | pest or weed control at 500 ppm [4, 10]
1 | Cc1cccc(C)c1OCC(C)N(C(=O)c1c(C(F)F)nn(C)c1F)C1CC1 (stereo not drawn) [Example 155] | 100% | 100% | 3.94 | 90% | 100% | – | – | – | – | – | – | – | –
2 | CC(N(C(=O)c1c(C(F)F)nn(C)c1Cl)C1CC1)C(C)(C)Cc1ccc(Cl)cc1Cl (stereo not drawn) [Example 182] | 100% | 90% | 5.39 | – | 100% | 95% | 75% | – | – | – | – | – | –
3 | CN(CCCc1cc(Cl)ccc1Cl)C(=O)c1c(C(F)F)nn(C)c1Cl [Example 167] | – | – | 3.62 | 70% | 80% | 100% | – | – | – | – | – | – | –
4 | Cc1cccc(C)c1CCC(C)NC(=O)c1c(C(F)F)nn(C)c1F (stereo not drawn) [Example 154] | 100% | 100% | 3.41 | 70% | 100% | 100% | 100% | – | – | – | – | – | –
5 | Cc1nn(C)c(F)c1C(=O)N(C(C)CCc1ccccc1C(F)(F)F)C1CC1 (stereo not drawn) [E-12 from WO-2008/101976, N-cyclopropyl-5-fluoro-1,3-dimethyl-N-{4-[2-(trifluoromethyl)phenyl]butan-2-yl}-1H-pyrazole-4-carboxamide, reference compound] | – | – | – | – | – | – | – | 10% | less than 10% | – | – | – | –
6 | CCC(CCc1sccc1Br)NC(=O)c1c(C(F)F)nn(C)c1F (stereo not drawn) [Example 89] | 100% | 89% | 3.46 | – | 100% | 80% | 88% | – | – | – | – | – | –
7 | CC1CCCC(C)(C)C1CCC(C)N(C(=O)c1c(C(F)F)nn(C)c1Cl)C1CC1 (stereo not drawn) [Example 368] | 100% | 93% | 6.07 | – | 95% | 80% | 93% | – | – | – | – | – | –
8 | Cn1nc(C(F)F)c(C(=O)N(CCOc2ccc(-c3ccccc3)cc2)C2CC2)c1F [Example 29] | – | – | 3.90 | – | 100% | 80% | – | 80% | – | – | – | – | –
9 | CN(CCCc1cc(Cl)ccc1Cl)C(=S)c1c(C(F)F)nn(C)c1F [Example 168] | – | – | 4.11 | – | 100% | 90% | – | 90% | – | – | – | – | –
10 | Cn1nc(C(F)F)c(C(=O)N(C2CC2)C2CCCCC2C(C)(C)C)c1F (stereo not drawn) [Example 350] | 100% | 100% | 4.71 | – | 100% | 90% | 100% | – | – | – | – | – | –
11 | Cn1nc(C(F)F)c(C(=O)NC2CCCCC2C2CCCCC2)c1F (stereo not drawn) [Example 374] | – | – | 4.34 | 100% | – | – | – | – | – | total protection | 100% | – | –
12 | Cc1cccc(C)c1CCC(C)NC(=O)c1c(C(F)F)nn(C)c1Cl (stereo not drawn) [Example 153] | 100% | 99% | 3.61 | 95% | 100% | – | 100% | – | – | – | – | – | –
13 | CC(CCc1ccccc1Cl)NC(=O)c1c(C(F)F)nn(C)c1F (racemic) [Example 144] | 100% | 94% | 3.21 | – | 100% | 100% | 90% | – | – | – | – | – | –
14 | CC(C)CCC1CCCC1NC(=O)c1c(C(F)F)nn(C)c1Cl (stereo not drawn) [Example 309] | 100% | 82% | 4.20 | – | 100% | 100% | 98% | – | – | – | – | – | –
15 | CCC1(CNC(=O)c2c(C(F)F)nn(C)c2Cl)CCCCC1 [Example 365] | – | – | 3.78 | – | – | – | – | 90% | – | – | – | – | –
16 | Cc1nn(C)c(F)c1C(=O)N(C(C)CCc1ccc(Cl)c(Cl)c1)C1CC1 (stereo not drawn) [E-13 from WO-2008/101976, N-cyclopropyl-N-[4-(3,4-dichlorophenyl)butan-2-yl]-5-fluoro-1,3-dimethyl-1H-pyrazole-4-carboxamide, reference compound] | – | – | – | – | – | – | – | – | – | – | – | no protection | 0%

Row | Compound | % Inhibition of Aflatoxin at 50 μM [1] | % Inhibition of fungal growth at 50 μM [2] | logP [3] | Efficacy [4, 9] | Efficacy [5] | Efficacy [6] | Efficacy [7] | Efficacy [8] | Efficacy ([8]; listed as example E-12 disclosed in patent application WO-2008/101976) | Efficacy [4, 10] | Efficacy ([4]; Table K6, dose 500 ppm, comparison with des-fluoro analogues) | Efficacy ([4]; 500 ppm of active ingredient, evaluated 8 days after inoculation, listed as example E-13 disclosed in patent application WO-2008/101976) | pest or weed control at 500 ppm [4, 10]
17 | CC1CCCC(C)(C)C1CCC(C)N(C(=O)c1c(C(F)F)nn(C)c1F)C1CC1 (stereo not drawn) [Example 367] | 100% | 100% | 5.81 | – | 100% | 90% | 100% | – | – | – | – | – | –
18 | Cc1cccc(C)c1CC(C)CNC(=O)c1c(C(F)F)nn(C)c1F (racemic) [Example 150] | 100% | 82% | 3.44 | – | 100% | 80% | 83% | – | – | – | – | – | –
19 | CN(CCCc1cc(Cl)ccc1Cl)C(=O)c1c(C(F)F)nn(C)c1F [Example 166] | 100% | 88% | 3.48 | 78% | 100% | 100% | – | – | – | – | – | – | –
20 | CC(CCc1ccc(Cl)c(Cl)c1)NC(=O)c1c(C(F)F)nn(C)c1Cl (racemic) [Example 131] | – | – | 3.85 | – | 100% | 95% | – | 80% | – | – | – | – | –
21 | Cn1nc(C(F)F)c(C(=O)N(C[Si](C)(C)Cc2ccccc2)C2CC2)c1Cl [Example 287] | – | – | 4.20 | – | 100% | 95% | – | 95% | – | – | – | – | –
22 | Cn1nc(C(F)F)c(C(=O)NC2CCCCC2Oc2ccccc2)c1Cl (stereo not drawn) [Example 246] | – | – | 3.76 | 95% | – | – | – | – | – | – | – | – | –
23 | CC(CCc1c(Cl)cccc1Cl)NC(=O)c1c(C(F)F)nn(C)c1F (stereo not drawn) [Example 163] | 100% | 100% | 3.59 | 80% | 100% | 100% | 100% | – | – | – | – | – | –
24 | Cn1nc(C(F)F)c(C(=S)N(C[Si](C)(C)Cc2ccc(Cl)cc2Cl)C2CC2)c1F [Example 299] | – | – | 5.57 | – | 100% | 95% | – | 95% | – | – | – | – | –
25 | CC(CCc1ccccc1C(F)(F)F)N(C(=O)c1c(C(F)F)nn(C)c1Cl)C1CC1 (stereo not drawn) [Example 220] | – | – | 4.26 | 90% | 100% | 95% | – | – | – | – | – | – | –
26 | CC(C)CC1CCCCC1NC(=O)c1c(C(F)F)nn(C)c1F (stereo not drawn) [Example 340] | 100% | 95% | 3.94 | – | 100% | 100% | 90% | – | – | – | – | – | –
27 | CC(COc1ccc(Cl)cc1Cl)N(C(=O)c1cn(C)nc1C(F)F)C1CC1 (stereo not drawn) [18 from WO-2010/012795, N-cyclopropyl-N-[1-(2,4-dichlorophenoxy)propan-2-yl]-3-(difluoromethyl)-1-methyl-1H-pyrazole-4-carboxamide, reference compound] | – | – | – | – | – | – | – | – | – | – | – | – | < 30%
28 | Cn1nc(C(F)F)c(C(=O)NC(C)(C)CCc2ccc(Cl)cc2Cl)c1F [Example 196] | 100% | 91% | 4.39 | – | 100% | 95% | 75% | – | – | – | – | – | –
29 | CC(CCc1cc(Cl)ccc1Cl)NC(=O)c1c(C(F)F)nn(C)c1F (stereo not drawn) [Example 172] | 100% | 100% | 3.68 | – | 100% | 100% | 93% | – | – | – | – | – | –
30 | CC(CCc1ccc(C(F)(F)F)cc1)NC(=O)c1c(C(F)F)nn(C)c1F (stereo not drawn) [Example 71] | 100% | 83% | 3.46 | – | 100% | 95% | 95% | – | – | – | – | – | –
31 | CC(CCc1ccc(C(F)(F)F)cc1)NC(=O)c1c(C(F)F)nn(C)c1Cl (stereo not drawn) [Example 70] | 97% | 78% | 3.63 | – | 100% | 95% | 75% | – | – | – | – | – | –
